The values below are quoted from earlier work in US20110059171A1 (LABORATORIOS SENOSIAIN S.A. DE C.V., priority 2008, published 2011).

Molecules are shown by their SMILES.

For data set [1] the following is noted: in vivo.

For the compound `O=C(c1ccccc1)c1ccc2n1CCC2C(=O)O` (racemic) [Ketorolac tromethamine, (+−)-5(benzoyl)-2,3-dihydro-1H-pyrrolizine-1-carboxylic acid tris (hydroxymethyl)methylamine], the water solubility result is “highly water-soluble”. In the case of `O=C(c1ccccc1)c1ccc2n1CCC2C(=O)O` (stereo not drawn) [Ketorolac], the “excreted without any change in urine” value in data set [1] was “about 90%”. Also, in the data set with proteins, the bound to proteins entry is recorded as “More than 99%”.
